{
  "source": "patent US20250057883A1",
  "about": "“CONTROLLABLE STIMULATION OF GENETICALLY ENGINEERED LYMPHOCYTES FOR THE TREATMENT OF CANCER” (THE TRUSTEES OF THE UNIVERSITY OF PENNSYLVANIA, priority 2021, published 2025)",
  "molecules": {"B1": {"name": "GCSF: Granulocyte Colony Stimulating Factor, cognate cytokine of GCSFRd715 (protein)", "chain": "TPLGPASSLPQSFLLKCLEQVRKIQGDGAALQEKLCATYKLCHPEELVLLGHSLGIPWAPLSSCPSQALQLAGCLSQLHSGLFLYQGLLQALEGISPELGPTLDTLQLDVADFATTIWQQMEELGMAPALQPTQGAMPAFASAFQRRAGGVLVASHLQSFLEVSYRVLRHLAQP"}},
  "key": {"[1]": {"test_system": "T cells expressing TPOR", "test": "Stimulation of T cells expressing TPOR for 7 days, flow cytometry", "type": "cell-based, human", "conditions": "0.1 μg/ml; for TPOR fraction after addition: enriched from 12.9%, FIG. 4 bottom panel", "description": "(§1) FIG. 3: T cells transduced to express (i) the thrombopoietin receptor (TPOR) or (ii) the GCF receptor with a deletion at aa 715 (GCSFRd715) are active and can drive T cell proliferation via the non-canonical JAK2 pathway. T cells expressing GCSFRd715, TPOR, or the truncated NGFR as a control were stimulated for 7 days with IL-2/IL-7/IL-15 (all at 5 ng/ml; denoted as CK; positive control condition), 0.1 μg/ml recombinant thrombopoietin (TPO), 0.1 μg/ml TPO agonist eltrombopag (EP), or 0.1 μg/ml GCSF. Cell number (top) or percent transgenic cells (bottom) were quantified using flow cytometry at 7 days.\n(§2) FIG. 4: Exemplary flow cytometry plots showing that exposure of transgenic cytokine receptor transduced cells to the cognate cytokine (i.e. GCSFRd715 to GCSF; TPOR to TPO or EP) leads to enrichment of CAR expressing cells at 7 days. Addition of GCSF enriched the GCSRFd715 transgenic cell fraction from 15.6% to 64.9% (top panel). Addition of TPO enriched the TPOR fraction from 12.9% to 82% and addition of EP enriched the TPOR fraction from 12.9% to 55.9% (bottom panel).\n(§3) Healthy donor T cells were transduced to express (i) the thrombopoietin receptor (TPOR) or (ii) the GCF receptor with a deletion at aa 715 (GCSFRd715). T cells expressing GCSFRd715, TPOR, or the truncated NGFR as a control were stimulated for 7 days with IL-2/IL-7/IL-15 (all at 5 ng/ml; denoted as CK; positive control condition), 0.1 μg/ml recombinant thrombopoietin (TPO), 0.1 μg/ml TPO agonist eltrombopag (EP), or 0.1 μg/ml GCSF. Cell number (FIG. 3, top) or percent transgenic cells (FIG. 3, bottom) were quantified using flow cytometry at 7 days."}, "[2]": {"biological_target": "GCF receptor with a deletion at aa 715 (GCSFRd715) (UniProt Q99062)", "sequence (Q99062 25-715 limits assumed, stated change not applied)": "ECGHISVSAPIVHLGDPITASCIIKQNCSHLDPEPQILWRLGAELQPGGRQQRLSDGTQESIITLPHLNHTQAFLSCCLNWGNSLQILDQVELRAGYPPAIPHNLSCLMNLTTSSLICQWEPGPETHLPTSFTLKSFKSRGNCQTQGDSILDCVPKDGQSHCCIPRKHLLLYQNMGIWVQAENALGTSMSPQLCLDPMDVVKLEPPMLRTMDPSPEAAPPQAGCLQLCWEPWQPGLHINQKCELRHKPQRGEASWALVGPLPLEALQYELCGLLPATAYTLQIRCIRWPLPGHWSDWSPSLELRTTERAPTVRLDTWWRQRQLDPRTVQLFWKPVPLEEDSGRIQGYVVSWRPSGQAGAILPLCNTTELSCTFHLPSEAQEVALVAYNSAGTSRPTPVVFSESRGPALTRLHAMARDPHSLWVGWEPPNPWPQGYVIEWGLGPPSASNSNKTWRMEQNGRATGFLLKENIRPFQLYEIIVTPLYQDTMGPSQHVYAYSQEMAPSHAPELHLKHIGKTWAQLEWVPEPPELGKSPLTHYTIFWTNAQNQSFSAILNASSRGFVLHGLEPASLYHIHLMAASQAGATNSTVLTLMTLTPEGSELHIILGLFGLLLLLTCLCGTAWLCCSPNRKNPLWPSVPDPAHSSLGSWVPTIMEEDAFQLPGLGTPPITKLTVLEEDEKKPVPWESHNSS", "test": "cell-based or functional assay"}, "[3]": {"test_system": "Human T cells", "test": "T cell expansion after MV pseudotyped lentiviral transduction with mbIL15", "type": "cell-based", "text": "FIGS. 1A-1E: Transgenic IL15 and IL15Ra-IL15 expression to enhances T cell proliferation. Human T cells were transduced with a measles virus (MV) pseudotyped lentiviral vector redirected specifically against human CD4, encoding the NGFR reporter alone (“no IL15 construct”), soluble IL15 along with the reporter, or membrane-bound IL15 along with the reporter. Transduction is shown in FIG. 1B, where the transgene is detected using a co-expressed reporter molecule (tNGFR). Quantification of soluble IL15 is depicted in FIG. 1C. No additional cytokine or stimulation signals were provided to the cells. Tcells express transgenic IL15 and IL15Ra-IL15. […].\nIL15 is a homeostatic cytokine that is required for the maintenance of CD8+ memory Tcells and NK cells, and promotes anti-tumor activity. IL15 signals through the IL15 receptor which is composed of a specific alpha chain (IL15Rα or IL15Ra) along with the shared IL2Rb and common gamma chain. Previous work has shown that a membrane bound version of IL15 (mbIL15) can be created by fusing IL15 directly to IL15Rα via a flexible linker that promotes IL15 signaling to the expressing cell (PMID: 27849617, US 2016/0158285 A1) (SEQ ID NO: 1,see Table 1). Herein, it was shown that incorporating mbIL15 in the lentiviral transfer genome increases CAR-T cell numbers 10-fold in vitro (FIGS. 1A-1D). […]"}, "[4]": {"biological_target": "thrombopoietin receptor (TPOR) (UniProt P40238)", "test": "cell-based or functional assay"}, "[5]": {"test_system": "T cells transduced with reporter+TPO-R", "test": "Expansion of TPO-R transduced T cells in vitro", "type": "cell-based, human", "conditions": "transduced using the MV pseudotyped lentivector; FIG. 2D", "text": "FIGS. 2A-2D: Transgenic TPO-R enables controllable T cell expansion. T cells were transduced with the reporter NGFR, or with reporter+the thrombopoietin receptor (TPOR) and stimulated with eltrombopag, a specific small molecule agonist of TPOR, in vitro. FIG. 2A: Cell number is shown to increase only in the presence of the TPOR agonist. […] FIG. 2C: All cells that express the reporter (tNGFR) also express the TPO receptor.\nRecombinant erythropoietin (Epo) and G-CSF are commercially approved for the treatment for anemia of chronic kidney disease, and for chemotherapy-related neutropenia, respectively. Clinical development of a recombinant thrombopoietin (TPO) was superseded by two TPO receptor (TPO-R, also known as c-Mpl) peptidomimetic drugs that are now approved for the treatment of immune thrombocytopenic purpura (romiplostim, and eltrombopag). […] Results of the TPO-R experiments were recapitulated herein (FIGS. 2A-2D). T cells were transduced with the reporter NGFR, or with reporter+TPO-R and stimulated with eltrombopag, a specific small molecule agonist of TPOR, in vitro. […] In FIG. 2C, it is shown that there is a 1:1 expression of the reporter NGFR with the TPO receptor after 12 days of eltrombopag treatment."}, "[6]": {"test_system": "STAT3 and STAT5", "test": "Phosphorylation of STAT3 and STAT5 in TPOR expressing T cells, flow cytometry", "type": "cell-based, human", "conditions": "0.1 μg/ml, 24 hours", "description": "(§4) FIG. 5: TPOR stimulation leads to activation of STAT3 and STAT5. Healthy donor Tcells expressing TPOR or untransduced control T cells were stimulated for 24 hours with 5 ng/ml IL-2/IL-7/IL-15 (CK), 0.1 μg/ml TPO or 0.1 μg/ml Eltrombopag (EP). Following stimulation cells were fixed and the phosphorylation of STAT3 and STAT5 quantified using flow cytometry.\nas §4, with “TPOR” for “FIG. 5: TPOR”, “stimulation led” for “stimulation leads”, “and STAT5 (FIG. 5).” for “and STAT5.”, “donor T cells” for “donor Tcells”, “μg/ml TPO,” for “μg/ml TPO”"}, "[7]": {"biological_target": "T1, TPO-R (Homo sapiens, UniProt P40238)", "T1 construct": "host or cells: CAR T cells transduced with TPO-R by other groups", "T1 sequence (P40238 26-635)": "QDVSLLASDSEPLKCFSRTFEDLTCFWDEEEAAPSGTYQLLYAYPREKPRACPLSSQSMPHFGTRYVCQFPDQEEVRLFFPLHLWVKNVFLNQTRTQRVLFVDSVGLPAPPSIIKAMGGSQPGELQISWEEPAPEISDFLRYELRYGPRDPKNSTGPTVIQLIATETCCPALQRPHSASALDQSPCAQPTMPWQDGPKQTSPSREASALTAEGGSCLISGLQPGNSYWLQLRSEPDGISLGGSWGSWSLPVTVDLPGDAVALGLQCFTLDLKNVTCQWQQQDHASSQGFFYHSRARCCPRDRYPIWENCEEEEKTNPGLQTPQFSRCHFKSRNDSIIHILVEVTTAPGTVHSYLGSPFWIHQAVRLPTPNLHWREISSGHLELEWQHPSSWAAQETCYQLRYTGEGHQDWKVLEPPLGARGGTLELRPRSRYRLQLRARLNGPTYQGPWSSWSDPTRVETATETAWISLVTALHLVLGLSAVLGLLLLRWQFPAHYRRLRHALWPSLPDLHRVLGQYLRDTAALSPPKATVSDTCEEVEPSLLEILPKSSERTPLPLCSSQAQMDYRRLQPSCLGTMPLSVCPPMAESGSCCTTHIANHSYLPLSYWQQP", "conditions": "CART cells transduced with TPO-R; cited from earlier work"}, "[8]": {"test_system": "T cells expressing the truncated NGFR", "test": "Stimulation of negative control T cells (truncated NGFR) for 7 days, flow cytometry", "type": "cell-based, human", "conditions": "0.1 μg/ml, FIG. 3 top", "description": "as §1, §3"}, "[9]": {"biological_target": "T2, interleukin-6 receptor (IL-6R) (Homo sapiens, UniProt P08887)", "T2 construct": "endogenous in cells; host or cells: subjects with cytokine release syndrome (in vivo)", "T2 sequence (P08887 20-468)": "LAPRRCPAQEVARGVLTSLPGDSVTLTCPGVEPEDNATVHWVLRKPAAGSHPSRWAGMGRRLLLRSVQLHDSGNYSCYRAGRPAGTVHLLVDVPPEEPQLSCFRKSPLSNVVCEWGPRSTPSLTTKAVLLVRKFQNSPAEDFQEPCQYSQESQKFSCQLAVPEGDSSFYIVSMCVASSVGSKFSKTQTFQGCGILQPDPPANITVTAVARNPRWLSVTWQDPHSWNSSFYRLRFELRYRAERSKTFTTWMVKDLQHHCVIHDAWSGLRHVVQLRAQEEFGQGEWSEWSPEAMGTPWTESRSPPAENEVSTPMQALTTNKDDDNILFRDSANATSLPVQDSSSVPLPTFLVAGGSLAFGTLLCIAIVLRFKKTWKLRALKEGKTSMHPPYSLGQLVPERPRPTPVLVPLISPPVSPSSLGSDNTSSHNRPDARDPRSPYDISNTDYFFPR", "conditions": "following CAR T-cell infusion; cited from earlier work"}, "[10]": {"test_system": "T cells expressing GCSFRd715", "test": "Stimulation of T cells expressing GCSFRd715 for 7 days, flow cytometry", "type": "cell-based, human", "description": "as §1, §2, §3"}},
  "note": "“Also recorded” adds a separate entry of the source.",
  "data": [
    {"molecule": "CC1=NN(c2ccc(C)c(C)c2)C(=O)/C1=N\\Nc1cccc(-c2cccc(C(=O)O)c2)c1O", "note": "[EP, eltrombopag, reference compound]", "values": [
      {"measurement": "TPOR fraction after addition", "setting": "[1]", "value": 55.9, "unit": "%"}
    ]},
    {"molecule": "Granulocyte Colony Stimulating Factor (G-CSF) (from UniProt P09919 31-204) (ligand)", "values": [
      {"measurement": "transgenic cell fraction after 7 days (flow cytometry)", "setting": "[2]", "value": 64.9, "unit": "%"}
    ]},
    {"molecule": "mbIL15: membrane bound version of IL15: IL15 fused directly to IL15Rα via a flexible linker (SEQ ID NO: 1)", "values": [
      {"measurement": "increase of CAR-T cell numbers", "setting": "[3]; in vitro, mbIL15 in the lentiviral transfer genome", "value": 10, "unit": "fold"},
      {"measurement": "cell number (expansion)", "setting": "[3]; no additional cytokine or stimulation signals, FIG. 1D", "value": "superior expansion"}
    ]},
    {"molecule": "recombinant thrombopoietin (TPO) (from UniProt P40225 22-353) (ligand)", "values": [
      {"measurement": "transgenic cell fraction after 7 days (flow cytometry)", "setting": "[4]", "value": 82, "unit": "%"}
    ]},
    {"molecule": "thrombopoietin [TPO]", "values": [
      {"measurement": "TPOR fraction after addition", "setting": "[1]", "value": 82, "unit": "%"},
      {"measurement": "response to stimulation (cell number)", "setting": "[1]; TPOR cells, FIG. 3 top", "value": "responded"},
      {"measurement": "expansion of non-activated (resting) cells", "setting": "[5]", "value": "led to expansion; also recorded: expand selectively"},
      {"measurement": "phosphorylation of STAT3 and STAT5", "setting": "[6]", "value": "leads to STAT5 and STAT3 phosphorylation; also recorded: lead to the expected STAT5 and STAT3 phosphorylation"},
      {"measurement": "proliferation and anti-tumor functions", "setting": "[7]", "value": "superior proliferation and anti-tumor functions"},
      {"measurement": "response to stimulation (cell number)", "setting": "[8]", "value": "did not respond"}
    ]},
    {"molecule": "tocilizumab: humanized monoclonal antibody against the interleukin-6 receptor (IL-6R)", "values": [
      {"measurement": "reversal of CRS", "setting": "[9]", "value": "near-immediate reversal of CRS"}
    ]},
    {"molecule": "B1", "values": [
      {"measurement": "GCSFRd715 transgenic cell fraction after addition", "setting": "[10]; 0.1 μg/ml, enriched from 15.6%, FIG. 4 top panel", "value": 64.9, "unit": "%"},
      {"measurement": "response to stimulation (cell number)", "setting": "[10]; GCSFRd715 cells, 0.1 μg/ml, FIG. 3 top", "value": "responded"},
      {"measurement": "relative enrichment of transgenic cells (percent transgenic cells)", "setting": "[10]; GCSFRd715 cells, FIG. 3 bottom", "value": "Relative enrichment"},
      {"measurement": "response to stimulation (cell number)", "setting": "[8]", "value": "did not respond"}
    ]}
  ]
}
